target: T1, human GPR40 (Homo sapiens, UniProt O14842); assay: Cell-based aequorin assay; settings: CHO cells stably transfected with GPR40 and aequorin; 0.01% HSA; aequorin luminescence; read-out: Relative EC50
T1 construct: expressed in transfected cells; host or cells: CHO cells
Description: Cell-based aequorin assays were employed to characterize the modulatory activity of compounds on the GPR40 signaling pathway. In an exemplary assay, CHO cells were stably transfected with both GPR40 and Aequorin (Euroscreen). Cells were detached from the tissue culture dish with 2 mL of trypsin (0.25% (w/v)). Trypsinization was halted with 28 mL of Hanks Buffered Salt Solution containing 20 mM Hepes (H/HBSS) and 0.01% fatty acid-free human serum albumin (HSA). Coelantrazine is added to 1 ug/mL, and the cells were incubated for 2 hours at room temperature. Compounds were dissolved in DMSO for preparation of 10 mM stock solutions. Compounds were diluted in H/HBSS containing 0.01% HSA. Serial dilutions of the test compounds were prepared to determine dose response.
Aequorin luminescence measurements were made using an EG&G Berthold 96-well luminometer, and the response was measured over a 20 second interval after cells and compounds were mixed. The maximum relative light units was plotted to determine dose response. The EC50 (effective concentration to reach 50% maximal response) was determined from the dose response plot.
Table 1 presents representative data (EC50 values) obtained for exemplary compounds of the invention for the relative activation of human GPR40. […]

T1 sequence (O14842 whole entry): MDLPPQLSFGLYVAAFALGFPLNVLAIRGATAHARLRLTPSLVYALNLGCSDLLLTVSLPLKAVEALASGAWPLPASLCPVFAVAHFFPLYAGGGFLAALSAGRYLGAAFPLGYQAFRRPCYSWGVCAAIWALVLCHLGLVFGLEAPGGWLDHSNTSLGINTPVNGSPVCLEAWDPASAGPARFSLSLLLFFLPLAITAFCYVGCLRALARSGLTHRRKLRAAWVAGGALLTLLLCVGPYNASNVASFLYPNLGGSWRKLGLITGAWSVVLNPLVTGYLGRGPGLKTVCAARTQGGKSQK

EC50 [µM]	Compound
0.1 to 1	O=C(O)CC(c1ccc(F)cc1)c1ccc(OC2CCc3cc(Br)ccc32)cc1 (racemic) [Example 42, (+/−)-3-[4-(5-Bromo-indan-1-yloxy)-phenyl]-3-(4-fluoro-phenyl)-propionic acid]
0.1 to 1	CC#C[C@@H](CC(=O)O)c1ccc(OC2CCc3ccccc3C2)cc1 (stereo partly drawn) [Example 26, (3S)-3-[4-(1,2,3,4-Tetrahydro-naphthalen-2-yloxy)-phenyl]-hex-4-ynoic acid]
0.1 to 1	Cn1ncnc1[C@@H](CC(=O)O)c1ccc(OCc2ccc3c(c2)C(C)(C)CCC3(C)C)cc1 [Example 72, (S)-3-(2-Methyl-2H-[1,2,4]triazol-3-yl)-3-[4-(5,5,8,8-tetramethyl-5,6,7,8-tetrahydro-naphthalen-2-ylmethoxy)-phenyl]-propionic acid]
1 to 10	CC#C[C@@H](CC(=O)O)c1ccc(OC2CCc3c2ccc(OC)c3OC)cc1 (stereo partly drawn) [Example 19, (3S)-3-[4-(4,5-Dimethoxy-indan-1-yloxy)-phenyl]-hex-4-ynoic acid]
0.01 to 0.1	CC#C[C@@H](CC(=O)O)c1ccc(OC2CCc3cc(Br)ccc32)cc1 (stereo partly drawn) [Example 2, (3S)-3-[4-(5-Bromo-indan-1-yloxy)-phenyl]-hex-4-ynoic acid]
> 10	CC#C[C@H](CC(=O)O)c1ccc(OC2CCc3cc(-c4cccc(OC)c4F)ccc32)cc1 (stereo partly drawn) [Example 67, (3R)-3-(4-(5-(2-Fluoro-3-methoxyphenyl)-2,3-dihydro-1H-inden-1-yloxy)phenyl)hex-4-ynoic acid]
0.1 to 1	CC#C[C@@H](CC(=O)O)c1ccc(OCCC2CCCC2)cc1 [Example 70, (S)-3-(4-(2-cyclopentylethoxy)phenyl)hex-4-ynoic acid]
> 10	CC#C[C@H](CC(=O)O)c1ccc(OC2CCc3cc(-c4cccc(OC)c4)ccc32)cc1 (stereo partly drawn) [Example 62, (3R)-3-(4-(5-(3-Methoxyphenyl)-2,3-dihydro-1H-inden-1-yloxy)phenyl)hex-4-ynoic acid]
> 10	C[C@H](Oc1ccc([C@H](CC(=O)O)c2nccn2C)cc1)c1ccc2c(c1)C(C)(C)CCC2(C)C [Example 87, (3S)-3-(1-Methyl-1H-imidazol-2-yl)-3-(4-(1-(5,5,8,8-tetramethyl-5,6,7,8-tetrahydronaphthalen-2-yl)ethoxy)phenyl)propanoic acid]
0.01 to 0.1	CC#C[C@@H](CC(=O)O)c1ccc(OC2CCc3cc(-c4ccc(C(F)(F)F)cc4)ccc32)cc1 (some centres unmarked) [Example 1]
1 to 10	O=C(O)CC(c1ccc(OC2CCc3cc(Cl)ccc32)cc1)c1ncco1 (racemic) [Example 33, (+/−)-3-(4-(5-Chloro-2,3-dihydro-1H-inden-1-yloxy)phenyl)-3-(oxazol-2-yl)propanoic acid]
0.1 to 1	Cn1ccnc1[C@@H](CC(=O)O)c1ccc(OCc2ccc3c(c2)C(C)(C)CCC3(C)C)cc1 [Example 71, (S)-3-(1-Methyl-1H-imidazol-2-yl)-3-[4-(5,5,8,8-tetramethyl-5,6,7,8-tetrahydro-naphthalen-2-ylmethoxy)-phenyl]-propionic acid]
0.1 to 1	Cc1cc2c(cc1COc1ccc([C@H](CC(=O)O)c3nccn3C)cc1)C(C)(C)CCC2(C)C [Example 93, (S)-3-(4-((3-Methyl-5,5,8,8-tetramethyl-5,6,7,8-tetrahydronaphthalen-2-yl)methoxy)phenyl)-3-(1-methyl-1H-imidazol-2-yl)propanoic acid]
0.01 to 0.1	Cn1nncc1[C@@H](CC(=O)O)c1ccc(OCc2ccc3c(c2)C(C)(C)CCC3(C)C)cc1 [Example 73, (S)-3-(3-methyl-3H-1,2,3-triazol-4-yl)-3-(4-((5,5,8,8-tetramethyl-5,6,7,8-tetrahydronaphthalen-2-yl)methoxy)phenyl)propanoic acid]
0.1 to 1	Cn1cnnc1[C@@H](CC(=O)O)c1ccc(OCc2ccc3c(c2)C(C)(C)CCC3(C)C)cc1 [Example 84]
0.01 to 0.1	CC#C[C@@H](CC(=O)O)c1ccc(OC2CCc3cc(OC)ccc32)cc1 (stereo partly drawn) [Example 18, (3S)-3-[4-(5-Methoxy-indan-1-yloxy)-phenyl]-hex-4-ynoic acid]
> 10	CC#C[C@H](CC(=O)O)c1ccc(OC2CCc3cc(-c4cccc(OC)c4OC)ccc32)cc1 (stereo partly drawn) [Example 61, (3R)-3-(4-(5-(2,3-Dimethoxyphenyl)-2,3-dihydro-1H-inden-1-yloxy)phenyl)hex-4-ynoic acid]
0.01 to 0.1	CC#C[C@@H](CC(=O)O)c1ccc(OC2CCc3cc(-c4cccc(OC(F)(F)F)c4)ccc32)cc1 (stereo partly drawn) [Example 50, (3S)-3-(4-(5-(3-(Trifluoromethoxy)phenyl)-2,3-dihydro-1H-inden-1-yloxy)phenyl)hex-4-ynoic acid]

Second part, the compound before the results:

Compound	EC50 [µM]
O=C(O)CC(c1ccc(OC2Cc3ccccc3C2)cc1)c1cccs1 (racemic) [Example 48, (+/−)-3-(4-(2,3-Dihydro-1H-inden-2-yloxy)phenyl)-3-(thiophen-2-yl)propanoic acid]	0.1 to 1
CC#C[C@H](CC(=O)O)c1ccc(OC2CCc3cc(-c4c(C)cc(C)cc4C)ccc32)cc1 (stereo partly drawn) [Example 64, (3R)-3-(4-(5-Mesityl-2,3-dihydro-1H-inden-1-yloxy)phenyl)hex-4-ynoic acid]	> 10
CC#C[C@@H](CC(=O)O)c1ccc(O[C@@H]2CCc3cc(Br)ccc32)cc1 (single isomer, unassigned) [Example 44]	0.01 to 0.1
CCc1cc2c(cc1COc1ccc([C@H](CC(=O)O)c3nccn3C)cc1)C(C)(C)CCC2(C)C [Example 94, (S)-3-(4-((3-Ethyl-5,5,8,8-tetramethyl-5,6,7,8-tetrahydronaphthalen-2-yl)methoxy)phenyl)-3-(1-methyl-1H-imidazol-2-yl)propanoic acid]	0.1 to 1
CC#C[C@@H](CC(=O)O)c1ccc(OC2CCc3ccc(OC)cc32)cc1 (stereo partly drawn) [Example 17, (3S)-3-[4-(6-Methoxy-indan-1-yloxy)-phenyl]-hex-4-ynoic acid]	0.01 to 0.1
CC#C[C@H](CC(=O)O)c1ccc(OCC2CCCCC2)cc1 [Example 68, (R)-3-(4-(Cyclohexylmethoxy)phenyl)hex-4-ynoic acid]	1 to 10
CC1(C)CCC(C)(C)c2cc(COc3ccc(C(CC(=O)O)C4=NOCC4)cc3)ccc21 (centres unmarked) [Example 85, 3-(4,5-Dihydroisoxazol-3-yl)-3-(4-((5,5,8,8-tetramethyl-5,6,7,8-tetrahydronaphthalen-2-yl)methoxy)phenyl)propanoic acid]	0.1 to 1
CC#C[C@@H](CC(=O)O)c1ccc(OC2CCc3c(-c4ccc(OC(F)(F)F)cc4)cccc32)cc1 (stereo partly drawn) [Example 6, (3S)-3-{4-[4-(4-Trifluoromethoxy-phenyl)-indan-1-yloxy]-phenyl}-hex-4-ynoic acid]	0.01 to 0.1
O=C(O)CC1CCCc2cc(OC3Cc4ccccc4C3)ccc21 (racemic) [Example 53, (R/S)-2-(6-(2,3-Dihydro-1H-inden-2-yloxy)-1,2,3,4-tetrahydronaphthalen-1-yl)acetic acid]	0.1 to 1
COc1ccc(F)c(-c2ccc3c(c2)CCC3Oc2ccc([C@H](C=C(C)C)CC(=O)O)cc2)c1 (some centres unmarked) [Example 56]	1 to 10
CC#C[C@H](CC(=O)O)c1ccc(OC2CCc3cc(-c4ccccc4OCC)ccc32)cc1 (stereo partly drawn) [Example 65, (3R)-3-(4-(5-(2-Ethoxyphenyl)-2,3-dihydro-1H-inden-1-yloxy)phenyl)hex-4-ynoic acid]	> 10
Cc1cnc(C(CC(=O)O)c2ccc(OC3Cc4ccccc4C3)cc2)o1 (centres unmarked) [Example 51, 3-(4-(2,3-Dihydro-1H-inden-2-yloxy)phenyl)-3-(5-methyloxazol-2-yl)propanoic acid]	0.1 to 1
CC#C[C@@H](CC(=O)O)c1ccc(OC2CCc3cc(-c4cc(C)ccc4OCCCC)ccc32)cc1 (stereo partly drawn) [Example 3, (3S)-3-(4-(5-(2-Butoxy-5-methylphenyl)-2,3-dihydro-1H-inden-1-yloxy)phenyl)hex-4-ynoic acid]	0.01 to 0.1
Cn1ccnc1[C@@H](CC(=O)O)c1ccc(OCc2ccc3c(c2)C(C)(C)CCC3)cc1 [Example 86, (S)-3-(4-((8,8-Dimethyl-5,6,7,8-tetrahydronaphthalen-2-yl)methoxy)phenyl)-3-(1-methyl-1H-imidazol-2-yl)propanoic acid]	0.1 to 1
CC#C[C@@H](CC(=O)O)c1ccc(OC2CCc3c(-c4cc(C)ccc4OCCCC)cccc32)cc1 (stereo partly drawn) [Example 8, (3S)-3-{4-[4-(2-Butoxy-5-methyl-phenyl)-indan-1-yloxy]-phenyl}-hex-4-ynoic acid]	0.01 to 0.1
CC1(C)CCC(C)(C)c2cc(COc3ccc([C@@H](CC(=O)O)c4ccc(F)cc4)cc3)ccc21 [Example 90, (R)-3-(4-Fluorophenyl)-3-(4-((5,5,8,8-tetramethyl-5,6,7,8-tetrahydronaphthalen-2-yl)methoxy)phenyl)propanoic acid]	1 to 10
COc1ccc(F)c(-c2ccc3c(c2)CCC3Oc2ccc([C@@H](C=C(C)C)CC(=O)O)cc2)c1 (some centres unmarked) [Example 57]	0.1 to 1
CC1(C)CCC(C)(C)c2cc(COc3ccc([C@H](CC(=O)O)c4ncco4)cc3)ccc21 [Example 82, (S)-3-Oxazol-2-yl-3-[4-(5,5,8,8-tetramethyl-5,6,7,8-tetrahydro-naphthalen-2-ylmethoxy)-phenyl]-propionic acid]	0.01 to 0.1
O=C(O)CC(c1ccc(OC2Cc3ccccc3C2)cc1)c1ncco1 (racemic) [Example 32, (+/−)-3-(4-(2,3-Dihydro-1H-inden-2-yloxy)phenyl)3-(oxazol-2-yl)propanoic acid]	1 to 10
Cn1cnnc1[C@H](CC(=O)O)c1ccc(OCc2ccc3c(c2)C(C)(C)CCC3(C)C)cc1 [Example 83]	> 10

Reference: patent US7582803B2 (Amgen Inc., priority 2005, dated 2009)
